Experimental data as given in US10933031B2, “Use of guaiacol for the prevention and treatment of glycogen storage disease” (THE TRUSTEES OF COLUMBIA UNIVERSITY IN THE CITY OF NEW YORK, priority 2016, dated 2021).
“Also recorded” adds a separate entry of the source.

What was measured:
[1] = test system: AMP kinase alpha (AMPK-α); assay: Western blot of AMP kinase Thr 172 phosphorylation; type: in vivo, mouse; details: tissue extracts of treated wild type and Gbe1^ys/ys mice, relative to total AMPK-α
Excerpt: FIG. 7 is a Western blot of phospho AMPK-α and total AMPK in muscle extracts obtained from wild type and Gbe1^ys/ys mice, and guaiacol-treated wild type and Gbe1^ys/ys mice.
Glycogen synthesis and breakdown is regulated according to the energy state of the cell. When glucose is abundant amount of ATP is high and AMP kinase remains un-phosphorylated. However when glucose concentrations go down so do the ATP levels because it is being converted to ADP and AMP.

[2] = test system: HepG2 liver epithelial cell line; assay: Glycogen content in HepG2 cells cultured with cobalt chloride; type: cell-based; details: DMEM supplemented with 150 μM cobalt chloride; results not shown
Experimental: (§1) One hit was obtained corresponding to a compound that decreased polyglucosan synthesis more than 50% at 6.75 μM concentration (FIG. 3). […] This compound identified was guaiacol and has been used as an expectorant and flavoring food additive but is no longer being marketed for medical purposes.

GYS1 = assay: Western blot of GYS1 phosphorylation in muscle extracts after oral guaiacol; type: in vivo, mouse; details: wild type mice, 45-720 mg/kg oral gavage, muscle extracts two hours after administration
Excerpt: FIG. 4 is a Western blot of GYS1 and GAPDH in muscle extracts obtained from wild type mice two hours after administration with guaiacol, suspended in water, in the indicated dosage amounts on the top panel by oral gavage.
Glycogen synthase is an allosteric enzyme that can be activated by glucose 6 phosphate or inactivated by phosphorylation of a serine residue on the enzyme. Thus, the phosphorylation status of GYS1 in muscle extracts which is the indicator of glycogen synthase activity was determined.
Wild type mice were administered guaiacol suspended in water at concentrations of 45, 90, 180, 360, and 720 mg/kg. Two hours after administration, muscle extracts were obtained and Western blot analysis of GYS1 was performed.

[3] = Glucose tolerance test (blood glucose); type: in vivo, mouse; details: after overnight fasting and glucose injection
Experimental: Blood glucose content was measured at times indicated in guaiacol-treated and untreated wild type and APBD (p.Y329s) mice. n=3 in each group.
After overnight fasting, mice were injected glucose and the blood glucose levels were measured.

Gbe1^ys/ys mice [4] = assay: Tissue glycogen content in treated wild type and Gbe1^ys/ys mice; type: in vivo, mouse
Experimental: FIG. 5 is a graph depicting the results of heart, brain, muscle and liver glycogen content in wild type and Gbe1^ys/ys mice, and guaiacol-treated wild-type and Gbe1^ys/ys mice. Glycogen was measured after a 16 hour fast (n=4 for each treatment). Glycogen content is expressed as percent glucose mg/gram fresh tissue. Error bars represent the mean±SD, P<0.001 where indicated (*).
A mouse model of GBE deficiency created by knocking in via homologous recombination the most common human GBE1 mutation (p.Y329S) found in Ashkenazi Jewish patients has been developed by the inventors and designated Gbe1^ys/ys (Akman et al. 2015).
After one month of treatment, four mice from each group (untreated wild type and Gbe1^ys/ys mice and guaiacol-treated wild type and Gbe1^ys/ys mice) were sacrificed and tissue glycogen contents were measured as described by Pederson et al. 2004.

Gbe1^neo/− MEF = assay: High throughput PAS-fluorescence screen of polyglucosan bodies in GBE-deficient MEF; type: cell-based, mouse
Experimental: Skin fibroblasts from wild type or Gbe1^neo/− E17.5 embryos were cultured to establish the MEF cell line by methods known in the art (FIG. 2). Diastase-resistant PAS positive staining was used specifically for carbohydrate staining. After paraformaldehyde fixation, cells were washed with PBS and normal glycogen was degraded by alpha-amylase digestion. The residual polysaccharides and PG in MEF were treated with periodic acid to oxidize sugars to aldehydes, which react with the Schiff reagent and stain pink. Although PAS staining was very efficient to detect PG (see FIGS. 2A, 2B, 2C, 2E, and 2G), the IN Cell 2000 cell detection system relies on fluorescence staining. PAS staining itself is fluorescent due to pararosanilin reagents, such as Rhodamine and TRITC, which can be excited (400 nm) and emits light detectable in red range ([…]) (FIGS. 2D, 2F and 2H).
To set up the automated detection system, control Gbe1^+/+ and Gbe1^neo/− MEFs were plated at different density on 384-well plates in order to obtain optimal cell density. A second important optimization regarded the diastase digestion of normal glycogen, keeping in mind that PGBs are resistant to diastase digestion and longer incubation times and/or higher enzyme concentrations are needed to digest PG. […] After diastase digestion, they were stained with PAS, and, after brief nuclear staining with Hoechst, the plates were analyzed by IN Cell 2000, GE Healthcare (Piscataway, N.J.), a high-throughput imaging system capable of performing high-content analysis using a wide array of micro plates. […] Automated quantitative results were obtained in terms of relative fluorescence per cell. Relative fluorescence per positive cells were analyzed and its significance were determined by z score according to plate average or by B score if there is a positional effect related to row and column that occurs in multi well plate cell cultures (Brideau et al. 2003). […]
1500 cells were plated per well to 384-well plates. […] The following day the cells were stained and analyzed as set forth in Example 3.

[5] = Tolerability: grip tests and weight gain or loss; type: in vivo, mouse; details: 22.5 mg/kg in drinking water
Experimental: (§2) Mice were treated with guaiacol in drinking water for 12 months every other day by preparing fresh guaiacol solution in water (3.8 g/liter or 3.1 ml/liter) considering the fact that an adult mouse drinks 6 ml water every day (Bachamov et al. 2002).

Gbe1^ys/ys mice [6] = assay: Lifespan and disease signs of Gbe1^ys/ys mice on guaiacol in drinking water; type: in vivo, mouse
Experimental: FIG. 9 is a Kaplan-Meier plot which illustrates the incidence of death in Gbe1^ys/ys (n=47), versus wild type mice (n=29), and guaiacol-treated Gbe1^ys/ys and wild type mice (n=4 each).
as §2
Treated Gbe1^ys/ys mice lived up to 24 months at time they were sacrificed as required by the protocol (FIG. 9).

MEF = assay: Glycogen content of MEF grown in cobalt supplemented media; type: cell-based, mouse; details: n=3, FIG. 3B
Experimental: FIGS. 3A-3C show guaiacol decreases glycogen synthesis. […] FIG. 3C is a graph showing the results of relative glycogen content of cells grown in cobalt supplemented media after 3 days of guaiacol treatment at concentrations indicated on horizontal axis.
as §1

[7] = HPLC of AMP, ADP, ATP and adenosine in muscle extracts; type: in vivo, mouse; details: for decrease in adenosine levels: muscle
Excerpt: FIG. 8 is a graph depicting results of high performance liquid chromatography analysis of adenosine in muscle of wild type and Gbe1^ys/ys mice, and guaiacol-treated wild type and Gbe1^ys/ys mice.
[…], the heterotrimeric protein AMPK is formed by α, β, and γ subunits. Each of these three subunits takes on a specific role in both the stability and activity of AMPK. (Stapleton et al. 1996). Specifically, the γ subunit includes four particular cystathionine beta synthase (CBS) domains giving AMPK its ability to sensitively detect shifts in the AMP: ATP ratio. The four CBS domains create two binding sites for AMP commonly referred to as Bateman domains. Binding of one AMP to a Bateman domain cooperatively increases the binding affinity of the second AMP to the other Bateman domain (Akman et al. 2007).

[8] = one month of treatment, 16 hour fast, n=4
[9] = treated Gbe1^ys/ys mice, long-term treatment

SMILES: COc1ccccc1O [guaiacol]
- Thr 172 phosphorylation of AMP kinase [1]: increased Thr 172 phosphorylation
- glycogen content in HepG2 [2]: decreased glycogen content
- phosphorylation of GYS1 compared to total GYS1 protein (GYS1): increased
- duration of high blood glucose versus control mice [3]: remained high longer
- blood glucose level versus control mice ([3]; wild type and APBD (p.Y329s) mice, n=3): higher blood glucose; also recorded: increases blood glucose concentration
- glycogen in brain, muscle and heart (Gbe1^ys/ys mice [4]; as restated in Example 7): increased
- glycogen content in the brain and muscle compared to untreated Gbe1^ys/ys mice (Gbe1^ys/ys mice [4]; later treatments, treated Gbe1^ys/ys mice): slight increase
- glycogen content in brain heart and muscle (Gbe1^ys/ys mice [4]; [8]): did not change
- glycogen content of the liver (Gbe1^ys/ys mice [4]; [8]): significant decrease; also recorded: decreased
- decrease of polyglucosan synthesis (Gbe1^neo/− MEF; 6.75 μM, three days treatment, JHCCL screen): more than 50%
- PAS stained granules in the cytosol (diastase treated) (Gbe1^neo/− MEF; 10 μM guaiacol, MEF cultures, FIG. 3A): decreased PAS stained granules
- decrease of polyglucosan synthesis and accumulation (Gbe1^neo/− MEF; JHCCL screen, concentration not stated): 50%
- effect on animal behavior (grip tests, weight gain or loss) [5]: did not adversely affect the animal's behavior
- lifespan of treated mice (Gbe1^ys/ys mice [6]; Gbe1^ys/ys mice, guaiacol in drinking water, sacrificed at 24 months as required by protocol): up to 24 months
- gait of treated mice (Gbe1^ys/ys mice [6]; treated Gbe1^ys/ys mice): spastic gait
- penile prolapse in male mice (Gbe1^ys/ys mice [6]; treated Gbe1^ys/ys mice): did not have penile prolapse; also recorded: preventing penile prolapse
- PG content in the liver (Gbe1^ys/ys mice [6]; [9]): decreased PG content
- polyglucosan in the muscle brain and heart (Gbe1^ys/ys mice [6]; [9]): slightly higher polyglucosan
- glycogen content in MEF (MEF): decrease of glycogen content
- AMP, ADP and ATP levels ([7]; muscle extracts, treated vs untreated wild type or Gbe1^ys/ys mice): no significant difference
- decrease in adenosine levels ([7]; Gbe1^ys/ys mice, n=4, p<0.03): 48%
- decrease in adenosine levels ([7]; wild-type mice, n=4, p<0.02): 53%
